Patent US6348309B1, “Process for inactivating viruses in blood and blood products” (priority 1989, dated 2002)

What was measured:
[1] = tested on: VSV; type: cell-based, vesicular stomatitis virus
[2] = target: T1, coagulation factor IX (Homo sapiens, UniProt P00740); test: Coagulation factor activity in human plasma with MB and light exposure (Example 10); type: biochemical
T1 construct: Varying amounts of MB were added to human plasma (2 ml aliquots); from tissue; host or cells: human plasma

[3] = tested on: Semliki Forest; type: cell-based
[4] = target: T2, coagulation factor VIII (Homo sapiens, UniProt P00451); test: Coagulation factor activity in human plasma right after MB addition (Example 9); type: biochemical; details: no light
T2 construct: Varying amounts of MB were added to human plasma (2 ml aliquots); from tissue; host or cells: human plasma
T2 sequence (P00451 20-1332 limits assumed): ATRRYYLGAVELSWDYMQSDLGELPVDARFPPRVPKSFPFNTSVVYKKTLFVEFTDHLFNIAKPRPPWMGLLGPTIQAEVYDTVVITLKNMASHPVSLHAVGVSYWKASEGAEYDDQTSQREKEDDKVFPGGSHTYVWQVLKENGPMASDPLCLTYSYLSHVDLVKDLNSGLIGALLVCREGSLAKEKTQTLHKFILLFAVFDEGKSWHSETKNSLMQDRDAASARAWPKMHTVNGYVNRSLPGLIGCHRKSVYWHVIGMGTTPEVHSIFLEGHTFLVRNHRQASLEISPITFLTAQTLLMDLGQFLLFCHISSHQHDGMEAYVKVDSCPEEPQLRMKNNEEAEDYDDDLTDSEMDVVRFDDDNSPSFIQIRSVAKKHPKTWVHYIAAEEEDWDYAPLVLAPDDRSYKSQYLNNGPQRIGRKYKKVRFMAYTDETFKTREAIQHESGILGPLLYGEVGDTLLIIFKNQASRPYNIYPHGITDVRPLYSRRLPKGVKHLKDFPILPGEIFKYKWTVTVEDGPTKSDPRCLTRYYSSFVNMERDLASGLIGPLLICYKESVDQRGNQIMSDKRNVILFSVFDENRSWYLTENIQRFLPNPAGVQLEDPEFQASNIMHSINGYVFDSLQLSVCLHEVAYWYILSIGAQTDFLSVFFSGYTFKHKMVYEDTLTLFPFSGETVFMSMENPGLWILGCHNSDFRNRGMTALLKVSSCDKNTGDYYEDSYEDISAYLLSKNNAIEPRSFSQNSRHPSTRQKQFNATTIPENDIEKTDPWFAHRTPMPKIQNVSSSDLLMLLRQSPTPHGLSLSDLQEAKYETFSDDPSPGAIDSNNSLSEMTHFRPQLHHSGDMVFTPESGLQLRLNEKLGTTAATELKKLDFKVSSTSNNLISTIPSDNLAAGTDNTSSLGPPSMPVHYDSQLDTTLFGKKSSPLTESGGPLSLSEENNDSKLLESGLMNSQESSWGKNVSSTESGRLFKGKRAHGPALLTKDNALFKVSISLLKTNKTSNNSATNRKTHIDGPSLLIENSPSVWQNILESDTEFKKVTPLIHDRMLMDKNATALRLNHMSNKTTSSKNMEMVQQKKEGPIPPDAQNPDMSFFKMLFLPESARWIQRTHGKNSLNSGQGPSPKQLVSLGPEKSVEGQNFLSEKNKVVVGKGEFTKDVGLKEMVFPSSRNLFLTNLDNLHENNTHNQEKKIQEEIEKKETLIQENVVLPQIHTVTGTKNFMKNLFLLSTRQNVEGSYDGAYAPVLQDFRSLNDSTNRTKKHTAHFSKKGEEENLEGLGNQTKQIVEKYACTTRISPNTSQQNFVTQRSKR
T2 sequence (P00451 1668-2351 limits assumed): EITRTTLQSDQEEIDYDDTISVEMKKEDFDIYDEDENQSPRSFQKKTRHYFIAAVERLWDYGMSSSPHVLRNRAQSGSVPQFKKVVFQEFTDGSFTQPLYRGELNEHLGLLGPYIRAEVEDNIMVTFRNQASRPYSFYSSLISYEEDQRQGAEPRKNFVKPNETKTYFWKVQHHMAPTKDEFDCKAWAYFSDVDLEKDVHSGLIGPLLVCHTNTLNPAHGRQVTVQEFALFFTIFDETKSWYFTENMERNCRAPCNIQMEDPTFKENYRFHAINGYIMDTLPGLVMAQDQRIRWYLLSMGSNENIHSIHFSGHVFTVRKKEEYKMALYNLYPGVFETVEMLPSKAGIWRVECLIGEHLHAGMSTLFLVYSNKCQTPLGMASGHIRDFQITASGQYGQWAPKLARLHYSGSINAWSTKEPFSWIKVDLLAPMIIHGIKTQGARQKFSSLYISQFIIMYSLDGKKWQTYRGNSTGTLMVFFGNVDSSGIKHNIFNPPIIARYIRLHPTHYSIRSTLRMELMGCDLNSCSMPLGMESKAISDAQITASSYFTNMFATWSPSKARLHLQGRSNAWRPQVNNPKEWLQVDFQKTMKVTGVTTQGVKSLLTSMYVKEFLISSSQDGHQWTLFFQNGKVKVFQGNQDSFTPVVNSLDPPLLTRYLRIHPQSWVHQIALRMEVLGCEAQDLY

[5] = target: T3, coagulation factor V (Homo sapiens, UniProt P12259); test: Coagulation factor activity in human plasma with MB and light exposure (Example 10); type: biochemical
T3 construct: Varying amounts of MB were added to human plasma (2 ml aliquots); from tissue; host or cells: human plasma
T3 sequence (P12259 29-2224): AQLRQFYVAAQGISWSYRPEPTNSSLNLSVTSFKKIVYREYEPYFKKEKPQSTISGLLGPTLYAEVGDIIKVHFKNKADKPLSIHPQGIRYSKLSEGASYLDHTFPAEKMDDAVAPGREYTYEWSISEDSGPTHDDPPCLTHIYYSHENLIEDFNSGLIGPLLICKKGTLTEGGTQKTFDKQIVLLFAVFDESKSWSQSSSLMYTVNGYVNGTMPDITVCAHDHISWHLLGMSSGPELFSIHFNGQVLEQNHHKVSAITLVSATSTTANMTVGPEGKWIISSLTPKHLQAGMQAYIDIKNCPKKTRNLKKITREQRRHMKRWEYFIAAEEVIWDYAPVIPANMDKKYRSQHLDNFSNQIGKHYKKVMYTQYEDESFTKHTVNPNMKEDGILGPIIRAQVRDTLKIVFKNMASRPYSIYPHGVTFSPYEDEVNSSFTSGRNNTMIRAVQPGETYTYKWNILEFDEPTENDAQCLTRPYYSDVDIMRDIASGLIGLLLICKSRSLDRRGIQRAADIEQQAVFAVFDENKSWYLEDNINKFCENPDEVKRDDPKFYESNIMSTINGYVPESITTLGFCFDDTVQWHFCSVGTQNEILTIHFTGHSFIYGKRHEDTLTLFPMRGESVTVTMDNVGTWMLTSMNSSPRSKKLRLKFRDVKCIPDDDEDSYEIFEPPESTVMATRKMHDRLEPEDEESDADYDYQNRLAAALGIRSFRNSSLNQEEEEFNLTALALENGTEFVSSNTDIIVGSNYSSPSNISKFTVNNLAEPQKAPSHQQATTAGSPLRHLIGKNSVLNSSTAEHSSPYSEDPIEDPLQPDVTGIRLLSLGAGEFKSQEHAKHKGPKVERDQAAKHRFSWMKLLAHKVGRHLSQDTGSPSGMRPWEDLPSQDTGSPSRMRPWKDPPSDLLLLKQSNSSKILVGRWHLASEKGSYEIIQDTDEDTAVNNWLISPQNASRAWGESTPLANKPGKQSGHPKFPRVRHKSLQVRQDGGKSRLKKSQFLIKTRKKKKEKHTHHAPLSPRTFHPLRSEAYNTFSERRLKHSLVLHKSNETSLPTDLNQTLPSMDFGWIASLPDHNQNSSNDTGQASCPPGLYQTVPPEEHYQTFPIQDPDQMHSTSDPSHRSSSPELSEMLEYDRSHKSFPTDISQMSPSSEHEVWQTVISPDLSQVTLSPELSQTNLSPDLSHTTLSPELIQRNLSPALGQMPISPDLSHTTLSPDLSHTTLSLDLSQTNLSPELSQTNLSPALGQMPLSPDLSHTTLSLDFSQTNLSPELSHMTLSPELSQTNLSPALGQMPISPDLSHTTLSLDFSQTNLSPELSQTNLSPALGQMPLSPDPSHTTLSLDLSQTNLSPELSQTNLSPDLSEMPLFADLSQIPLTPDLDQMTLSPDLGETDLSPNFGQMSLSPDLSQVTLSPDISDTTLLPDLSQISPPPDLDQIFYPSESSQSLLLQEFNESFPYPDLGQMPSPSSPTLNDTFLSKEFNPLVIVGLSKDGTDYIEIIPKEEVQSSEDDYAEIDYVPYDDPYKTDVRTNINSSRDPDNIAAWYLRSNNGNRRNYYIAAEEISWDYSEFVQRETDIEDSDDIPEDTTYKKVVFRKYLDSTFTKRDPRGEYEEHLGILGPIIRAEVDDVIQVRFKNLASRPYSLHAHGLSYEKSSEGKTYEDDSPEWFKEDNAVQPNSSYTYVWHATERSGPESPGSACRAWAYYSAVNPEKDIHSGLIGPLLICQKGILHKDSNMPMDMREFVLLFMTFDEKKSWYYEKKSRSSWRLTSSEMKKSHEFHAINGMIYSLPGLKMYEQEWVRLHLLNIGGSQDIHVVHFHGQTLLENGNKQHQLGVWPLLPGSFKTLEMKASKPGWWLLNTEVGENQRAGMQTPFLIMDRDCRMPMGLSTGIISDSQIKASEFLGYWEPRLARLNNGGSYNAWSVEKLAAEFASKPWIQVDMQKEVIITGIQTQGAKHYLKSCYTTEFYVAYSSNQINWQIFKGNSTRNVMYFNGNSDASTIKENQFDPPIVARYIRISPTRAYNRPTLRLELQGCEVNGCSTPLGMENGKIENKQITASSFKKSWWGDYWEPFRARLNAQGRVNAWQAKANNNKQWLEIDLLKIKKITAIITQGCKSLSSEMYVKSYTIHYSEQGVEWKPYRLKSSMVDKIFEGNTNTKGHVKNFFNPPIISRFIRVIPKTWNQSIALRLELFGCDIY

[6] = tested on: VSV; type: cell-based, vesicular stomatitis virus; remark: listed apart in the source
[7] = tested on: HIV-2; test: MB/light virus inactivation in plasma (Example 6, Table VI); type: cell-based; details: illumination 15 min; * production conditions, plastic bag 250-300 ml plasma
[8] = target: T2, coagulation factor VIII; test: Coagulation factor activity in human plasma with MB and light exposure (Example 10); type: biochemical

T1 sequence (P00740 47-461): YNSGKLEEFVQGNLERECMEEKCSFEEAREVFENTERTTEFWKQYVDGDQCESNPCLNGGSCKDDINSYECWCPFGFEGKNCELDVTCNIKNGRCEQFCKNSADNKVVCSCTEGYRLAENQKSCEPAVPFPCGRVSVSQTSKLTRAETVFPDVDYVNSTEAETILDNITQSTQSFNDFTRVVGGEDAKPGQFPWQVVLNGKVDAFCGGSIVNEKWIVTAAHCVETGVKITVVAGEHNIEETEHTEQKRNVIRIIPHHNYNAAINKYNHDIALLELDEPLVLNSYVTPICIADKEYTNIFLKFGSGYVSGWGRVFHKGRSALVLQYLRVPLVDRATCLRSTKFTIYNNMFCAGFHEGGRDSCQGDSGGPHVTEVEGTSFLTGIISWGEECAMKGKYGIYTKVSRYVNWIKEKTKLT

## CN(C)c1ccc2nc3ccc(=[N+](C)C)cc-3sc2c1 [MB, methylene blue]
[1]
  reduction of infectious titer of VSV: more than 5 log10-steps
[2]; light exposure 0 h, MB 1 μM
  Factor IX: 1.20 E/ml
[2]; light exposure 0 h, MB 2.5 μM
  Factor IX: 0.46 E/ml
[2]; light exposure 0 h, MB 10 μM
  Factor IX: 0.44 E/ml
[2]; light exposure 1 h, MB 1 μM
  Factor IX: 0.92 E/ml
[2]; light exposure 1 h, MB 2.5 μM
  Factor IX: 0.82 E/ml
[2]; light exposure 1 h, MB 10 μM
  Factor IX: 0.68 E/ml
[2]; light exposure 2 h, MB 1 μM
  Factor IX: 0.90 E/ml
[2]; light exposure 2 h, MB 2.5 μM
  Factor IX: 0.72 E/ml
[2]; light exposure 2 h, MB 10 μM
  Factor IX: 0.74 E/ml
[2]; light exposure 4 h, MB 1 μM
  Factor IX: 0.94 E/ml
[2]; light exposure 4 h, MB 2.5 μM
  Factor IX: 0.82 E/ml
[2]; light exposure 4 h, MB 10 μM
  Factor IX: 0.64 E/ml
[3]
  Inactivation Rate: >7.00 log10 TCID50
[4]; Methylene Blue 1 μM
  Factor VIII: 0.41 E/ml
[4]; Methylene Blue 2.5 μM
  Factor VIII: 0.41 E/ml
[4]; Methylene Blue 5 μM
  Factor VIII: 0.38 E/ml
[4]; Methylene Blue 10 μM
  Factor VIII: 0.35 E/ml
[4]; Methylene Blue 20 μM
  Factor VIII: 0.28 E/ml
[4]
  MB concentration from which factor VIII activity is inhibited: about 10 μM
[5]; light exposure 0 h, MB 1 μM
  Factor V: 0.86 E/ml
[5]; light exposure 0 h, MB 2.5 μM
  Factor V: 0.82 E/ml
[5]; light exposure 0 h, MB 10 μM
  Factor V: 0.72 E/ml
[5]; light exposure 1 h, MB 1 μM
  Factor V: 0.72 E/ml
[5]; light exposure 1 h, MB 2.5 μM
  Factor V: 0.68 E/ml
[5]; light exposure 1 h, MB 10 μM
  Factor V: 0.47 E/ml
[5]; light exposure 2 h, MB 1 μM
  Factor V: 0.64 E/ml
[5]; light exposure 2 h, MB 2.5 μM
  Factor V: 0.68 E/ml
[5]; light exposure 2 h, MB 10 μM
  Factor V: 0.60 E/ml
[5]; light exposure 4 h, MB 1 μM
  Factor V: 0.56 E/ml
[5]; light exposure 4 h, MB 2.5 μM
  Factor V: 0.49 E/ml
[5]; light exposure 4 h, MB 10 μM
  Factor V: 0.42 E/ml
[6]
  inactivation of VSV: only partial inactivation
  time until viral infectivity almost completely reduced to the detection limit: 15 to 30 min
[7]
  Inactivation Rate: >3.81 * log10 TCID50
[8]; light exposure 0 h, MB 1 μM
  Factor VIII: 0.45 E/ml
[8]; light exposure 0 h, MB 2.5 μM
  Factor VIII: 0.33 E/ml
[8]; light exposure 0 h, MB 10 μM
  Factor VIII: 0.30 E/ml
[8]; light exposure 1 h, MB 1 μM
  Factor VIII: 0.24 E/ml
[8]; light exposure 1 h, MB 2.5 μM
  Factor VIII: 0.24 E/ml
[8]; light exposure 1 h, MB 10 μM
  Factor VIII: 0.16 E/ml
[8]; light exposure 2 h, MB 1 μM
  Factor VIII: 0.23 E/ml
[8]; light exposure 2 h, MB 2.5 μM
  Factor VIII: 0.22 E/ml
[8]; light exposure 2 h, MB 10 μM
  Factor VIII: 0.15 E/ml
[8]; light exposure 4 h, MB 1 μM
  Factor VIII: 0.16 E/ml
[8]; light exposure 4 h, MB 2.5 μM
  Factor VIII: 0.29 E/ml
[8]; light exposure 4 h, MB 10 μM
  Factor VIII: 0.27 E/ml
